Reference: ChEMBL document CHEMBL5465560, “Selectivity Literature for EUbOPEN Chemogenomic Library” (2024)

Key:
[1] = target: Serine/threonine-protein kinase pim-2 (Homo sapiens, UniProt Q9P1W9); experiment: Selectivity interaction (KinomeScan (DiscoverX)) EUB0000618a PIM2; settings: at 10 µM
[2] = target: Serine/threonine-protein kinase 32B (Homo sapiens) (UniProt Q9NY57); experiment: Selectivity interaction (KinomeScan (DiscoverX)) EUB0000618a STK32B; settings: at 10 µM
[3] = target: STE20/SPS1-related proline-alanine-rich protein kinase (Homo sapiens) (UniProt Q9UEW8); experiment: Selectivity interaction (KinomeScan (DiscoverX)) EUB0001619a STK39; settings: at 1 µM
[4] = target: Protein kinase C eta type (Homo sapiens) (UniProt P24723); experiment: Selectivity interaction (KinomeScan (DiscoverX)) EUB0000045b PRKCH
[5] = target: Mitogen-activated protein kinase 14 (Homo sapiens, UniProt Q16539); experiment: Selectivity interaction (KinomeScan (DiscoverX)) EUB0000595a MAPK14; settings: at 10 µM
[6] = target: Phosphatidylinositol 4-phosphate 5-kinase type-1 alpha (Homo sapiens) (UniProt Q99755); settings: at 10 µM
[7] = target: T1, Phosphorylase b kinase gamma catalytic chain, liver/testis isoform (Homo sapiens) (UniProt P15735); experiment: Selectivity interaction (Upstate Kinase Profiler service (Millipore)) EUB0000056c PHKG2; settings: at 1 µM
T1 sequence (whole entry): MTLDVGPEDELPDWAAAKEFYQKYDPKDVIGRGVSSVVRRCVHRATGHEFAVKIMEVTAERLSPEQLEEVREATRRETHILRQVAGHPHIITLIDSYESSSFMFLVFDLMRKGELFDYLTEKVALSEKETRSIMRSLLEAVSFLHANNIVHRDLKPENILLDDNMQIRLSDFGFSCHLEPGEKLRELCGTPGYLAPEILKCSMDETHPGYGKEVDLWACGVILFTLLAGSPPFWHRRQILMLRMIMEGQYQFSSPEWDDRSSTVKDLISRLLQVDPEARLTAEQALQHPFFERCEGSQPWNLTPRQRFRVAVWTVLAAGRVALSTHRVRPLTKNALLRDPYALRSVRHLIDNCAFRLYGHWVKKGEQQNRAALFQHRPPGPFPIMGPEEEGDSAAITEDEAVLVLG

[8] = target: Eukaryotic translation initiation factor 2-alpha kinase 1 (Homo sapiens) (UniProt Q9BQI3); settings: at 10 µM
[9] = target: Serine/threonine-protein kinase PLK1 (Homo sapiens, UniProt P53350); experiment: Selectivity interaction (ActivX KiNativ screen (kinase selectivity in THP-1 cell lysates)) EUB0000639a PLK1; type: subcellular; settings: lysate, at 0.04 µM
[10] = target: Death-associated protein kinase 3 (Homo sapiens) (UniProt O43293); experiment: Selectivity interaction (KinomeScan (DiscoverX)) EUB0001049a DAPK3; settings: at 1 µM
[11] = target: T2, Ephrin type-B receptor 2 (Homo sapiens) (UniProt P29323); experiment: Selectivity interaction (KinomeScan (DiscoverX)) EUB0000666a EPHB2; settings: at 10 µM
T2 sequence (whole entry): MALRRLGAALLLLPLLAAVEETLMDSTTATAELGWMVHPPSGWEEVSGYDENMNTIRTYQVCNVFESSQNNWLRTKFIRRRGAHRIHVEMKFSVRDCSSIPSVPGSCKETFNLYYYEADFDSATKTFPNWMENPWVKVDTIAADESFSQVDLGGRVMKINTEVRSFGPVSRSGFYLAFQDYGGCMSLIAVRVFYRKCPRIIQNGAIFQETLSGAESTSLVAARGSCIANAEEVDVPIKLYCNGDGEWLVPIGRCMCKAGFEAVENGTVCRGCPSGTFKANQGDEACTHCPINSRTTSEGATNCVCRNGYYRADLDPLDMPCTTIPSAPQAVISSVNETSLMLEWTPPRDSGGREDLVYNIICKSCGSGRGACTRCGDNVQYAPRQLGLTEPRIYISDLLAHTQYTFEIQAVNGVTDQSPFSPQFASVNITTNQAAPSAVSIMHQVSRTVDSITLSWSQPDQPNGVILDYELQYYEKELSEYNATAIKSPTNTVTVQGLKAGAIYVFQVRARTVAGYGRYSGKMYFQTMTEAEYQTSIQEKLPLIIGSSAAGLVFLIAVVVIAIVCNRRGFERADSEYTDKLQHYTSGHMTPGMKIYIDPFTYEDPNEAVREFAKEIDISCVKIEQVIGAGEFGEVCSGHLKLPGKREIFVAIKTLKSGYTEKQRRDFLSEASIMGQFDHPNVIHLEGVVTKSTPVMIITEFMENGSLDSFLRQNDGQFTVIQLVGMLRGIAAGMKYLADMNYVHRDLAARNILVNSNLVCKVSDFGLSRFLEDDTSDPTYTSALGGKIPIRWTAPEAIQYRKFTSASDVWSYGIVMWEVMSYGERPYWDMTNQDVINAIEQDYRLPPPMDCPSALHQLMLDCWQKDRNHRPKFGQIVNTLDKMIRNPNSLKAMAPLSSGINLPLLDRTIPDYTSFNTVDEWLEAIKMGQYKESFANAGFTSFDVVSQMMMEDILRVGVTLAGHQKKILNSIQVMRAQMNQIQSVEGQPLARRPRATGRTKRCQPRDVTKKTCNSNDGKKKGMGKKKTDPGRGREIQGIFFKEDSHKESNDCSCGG

[12] = target: Tyrosine-protein kinase HCK (Homo sapiens) (UniProt P08631); experiment: Selectivity interaction (KinomeScan (DiscoverX)) EUB0000666a HCK; settings: at 10 µM
[13] = target: T3, Serine/threonine-protein kinase NLK (Homo sapiens) (UniProt Q9UBE8); experiment: Selectivity interaction (LanthaScreen Eu Kinase Binding Assay) EUB0001632a NLK; settings: at 10 µM
T3 sequence (whole entry): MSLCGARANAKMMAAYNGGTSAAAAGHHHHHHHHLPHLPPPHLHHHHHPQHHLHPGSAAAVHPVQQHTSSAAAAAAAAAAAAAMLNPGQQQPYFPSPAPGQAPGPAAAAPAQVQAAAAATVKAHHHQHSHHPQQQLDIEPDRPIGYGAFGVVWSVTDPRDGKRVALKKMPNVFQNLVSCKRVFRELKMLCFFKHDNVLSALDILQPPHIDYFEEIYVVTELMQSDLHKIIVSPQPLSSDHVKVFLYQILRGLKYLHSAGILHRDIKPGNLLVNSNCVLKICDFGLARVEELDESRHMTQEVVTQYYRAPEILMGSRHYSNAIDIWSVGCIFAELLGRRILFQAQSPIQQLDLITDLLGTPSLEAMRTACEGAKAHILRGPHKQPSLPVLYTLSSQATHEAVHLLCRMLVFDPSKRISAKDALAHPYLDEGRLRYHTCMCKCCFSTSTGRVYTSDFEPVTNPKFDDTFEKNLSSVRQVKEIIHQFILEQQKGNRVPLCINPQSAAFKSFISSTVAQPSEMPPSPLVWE

[14] = target: Proto-oncogene tyrosine-protein kinase Src (Homo sapiens, UniProt P12931); experiment: Selectivity interaction (Kinase panel (Z-LYTE Assay)) EUB0001632a SRC; settings: at 10 µM
[15] = target: Casein kinase I isoform alpha (Homo sapiens, UniProt P48729); experiment: Selectivity interaction (Kinase screening (Upstate/Millipore)) EUB0000604a CSNK1A1
Sequence of Casein kinase I isoform alpha (P48729 2-337 limits assumed): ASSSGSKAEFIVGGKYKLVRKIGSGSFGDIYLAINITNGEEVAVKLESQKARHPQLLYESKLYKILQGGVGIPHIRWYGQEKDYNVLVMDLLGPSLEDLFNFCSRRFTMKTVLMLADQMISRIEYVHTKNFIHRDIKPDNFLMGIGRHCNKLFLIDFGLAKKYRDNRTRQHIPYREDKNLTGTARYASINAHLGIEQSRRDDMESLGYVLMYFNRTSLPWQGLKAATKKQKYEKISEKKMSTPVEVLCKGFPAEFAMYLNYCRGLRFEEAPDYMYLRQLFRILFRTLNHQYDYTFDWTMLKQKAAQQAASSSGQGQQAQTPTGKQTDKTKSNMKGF

Sequence of Protein kinase C eta type (Homo sapiens) (P24723 whole entry): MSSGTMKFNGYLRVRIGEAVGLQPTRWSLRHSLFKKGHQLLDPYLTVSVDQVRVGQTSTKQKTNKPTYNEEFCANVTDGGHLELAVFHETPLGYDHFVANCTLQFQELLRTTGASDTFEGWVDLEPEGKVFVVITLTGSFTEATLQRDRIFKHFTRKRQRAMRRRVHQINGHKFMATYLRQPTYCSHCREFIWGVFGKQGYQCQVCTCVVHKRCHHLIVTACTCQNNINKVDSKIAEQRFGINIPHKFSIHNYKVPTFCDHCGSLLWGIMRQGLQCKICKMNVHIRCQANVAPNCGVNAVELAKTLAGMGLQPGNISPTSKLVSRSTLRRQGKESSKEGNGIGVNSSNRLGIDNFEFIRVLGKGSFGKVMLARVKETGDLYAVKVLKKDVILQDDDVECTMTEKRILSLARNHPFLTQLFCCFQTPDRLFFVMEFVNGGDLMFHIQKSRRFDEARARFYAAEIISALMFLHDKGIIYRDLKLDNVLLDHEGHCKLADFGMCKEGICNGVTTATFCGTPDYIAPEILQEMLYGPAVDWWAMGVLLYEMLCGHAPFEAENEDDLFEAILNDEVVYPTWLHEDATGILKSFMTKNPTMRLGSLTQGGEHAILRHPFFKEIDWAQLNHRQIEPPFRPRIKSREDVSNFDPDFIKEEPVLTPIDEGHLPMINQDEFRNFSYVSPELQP
Sequence of Phosphatidylinositol 4-phosphate 5-kinase type-1 alpha (Homo sapiens) (Q99755 whole entry, canonical isoform): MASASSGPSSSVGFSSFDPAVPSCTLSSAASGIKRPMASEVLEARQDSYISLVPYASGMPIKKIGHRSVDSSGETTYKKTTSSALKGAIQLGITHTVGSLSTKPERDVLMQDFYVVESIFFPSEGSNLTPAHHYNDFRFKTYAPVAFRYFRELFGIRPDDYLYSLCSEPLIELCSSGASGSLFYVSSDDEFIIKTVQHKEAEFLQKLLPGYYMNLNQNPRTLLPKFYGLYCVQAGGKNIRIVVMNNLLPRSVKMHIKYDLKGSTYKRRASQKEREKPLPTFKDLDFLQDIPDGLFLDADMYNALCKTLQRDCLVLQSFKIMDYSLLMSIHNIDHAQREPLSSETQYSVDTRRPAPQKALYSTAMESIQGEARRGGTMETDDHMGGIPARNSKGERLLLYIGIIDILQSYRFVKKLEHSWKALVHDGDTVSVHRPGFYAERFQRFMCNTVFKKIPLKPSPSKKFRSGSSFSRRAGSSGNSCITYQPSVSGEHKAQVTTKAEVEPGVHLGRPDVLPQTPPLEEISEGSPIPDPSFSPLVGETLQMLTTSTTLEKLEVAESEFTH
Sequence of Tyrosine-protein kinase HCK (Homo sapiens) (P08631 2-526 limits assumed): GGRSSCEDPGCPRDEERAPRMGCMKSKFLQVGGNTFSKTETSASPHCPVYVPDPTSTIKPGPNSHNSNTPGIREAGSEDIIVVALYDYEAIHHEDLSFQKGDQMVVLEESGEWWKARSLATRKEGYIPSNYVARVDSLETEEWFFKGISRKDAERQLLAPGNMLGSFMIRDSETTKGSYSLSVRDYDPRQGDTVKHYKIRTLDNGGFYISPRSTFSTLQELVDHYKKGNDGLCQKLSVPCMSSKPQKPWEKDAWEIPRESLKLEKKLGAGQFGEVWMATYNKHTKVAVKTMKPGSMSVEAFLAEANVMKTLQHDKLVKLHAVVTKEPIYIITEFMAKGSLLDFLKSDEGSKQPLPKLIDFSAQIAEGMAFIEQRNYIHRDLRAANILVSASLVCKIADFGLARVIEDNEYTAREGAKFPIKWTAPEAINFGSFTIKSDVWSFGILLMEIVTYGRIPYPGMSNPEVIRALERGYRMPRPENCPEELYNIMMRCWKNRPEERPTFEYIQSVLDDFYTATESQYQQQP
Sequence of Serine/threonine-protein kinase pim-2 (Q9P1W9 whole entry, looked up): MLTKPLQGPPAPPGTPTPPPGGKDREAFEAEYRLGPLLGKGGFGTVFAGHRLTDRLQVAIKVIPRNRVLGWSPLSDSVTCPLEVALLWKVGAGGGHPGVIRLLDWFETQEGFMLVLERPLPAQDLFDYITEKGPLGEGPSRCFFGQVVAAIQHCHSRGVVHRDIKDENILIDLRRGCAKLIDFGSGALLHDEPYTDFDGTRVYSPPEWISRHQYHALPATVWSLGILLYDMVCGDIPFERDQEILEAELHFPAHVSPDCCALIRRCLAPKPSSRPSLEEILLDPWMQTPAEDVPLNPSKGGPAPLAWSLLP
Sequence of Mitogen-activated protein kinase 14 (Q16539 whole entry): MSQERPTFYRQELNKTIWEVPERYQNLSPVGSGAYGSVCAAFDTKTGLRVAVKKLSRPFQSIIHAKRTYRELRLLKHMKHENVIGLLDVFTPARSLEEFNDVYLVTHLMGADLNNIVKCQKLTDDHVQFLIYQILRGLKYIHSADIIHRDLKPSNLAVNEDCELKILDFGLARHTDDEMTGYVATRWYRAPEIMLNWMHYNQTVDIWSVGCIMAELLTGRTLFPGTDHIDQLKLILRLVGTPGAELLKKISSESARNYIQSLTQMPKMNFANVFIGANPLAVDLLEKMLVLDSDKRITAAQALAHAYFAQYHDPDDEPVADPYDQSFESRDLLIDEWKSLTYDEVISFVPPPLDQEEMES
Sequence of Proto-oncogene tyrosine-protein kinase Src (P12931 2-536 limits assumed): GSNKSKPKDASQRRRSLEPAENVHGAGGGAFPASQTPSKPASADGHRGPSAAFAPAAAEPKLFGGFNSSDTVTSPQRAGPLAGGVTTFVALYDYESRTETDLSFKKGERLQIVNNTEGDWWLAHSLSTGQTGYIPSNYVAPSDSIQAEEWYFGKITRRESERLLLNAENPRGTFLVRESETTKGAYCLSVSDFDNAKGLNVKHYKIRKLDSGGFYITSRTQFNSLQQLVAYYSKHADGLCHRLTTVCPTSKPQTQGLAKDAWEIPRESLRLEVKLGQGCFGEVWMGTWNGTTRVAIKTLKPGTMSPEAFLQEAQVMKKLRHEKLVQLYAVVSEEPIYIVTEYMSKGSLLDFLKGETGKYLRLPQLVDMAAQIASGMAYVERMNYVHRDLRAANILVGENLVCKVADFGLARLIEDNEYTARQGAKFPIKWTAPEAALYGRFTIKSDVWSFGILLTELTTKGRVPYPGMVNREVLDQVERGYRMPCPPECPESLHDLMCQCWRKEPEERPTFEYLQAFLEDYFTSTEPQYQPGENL
Sequence of Eukaryotic translation initiation factor 2-alpha kinase 1 (Homo sapiens) (Q9BQI3 whole entry): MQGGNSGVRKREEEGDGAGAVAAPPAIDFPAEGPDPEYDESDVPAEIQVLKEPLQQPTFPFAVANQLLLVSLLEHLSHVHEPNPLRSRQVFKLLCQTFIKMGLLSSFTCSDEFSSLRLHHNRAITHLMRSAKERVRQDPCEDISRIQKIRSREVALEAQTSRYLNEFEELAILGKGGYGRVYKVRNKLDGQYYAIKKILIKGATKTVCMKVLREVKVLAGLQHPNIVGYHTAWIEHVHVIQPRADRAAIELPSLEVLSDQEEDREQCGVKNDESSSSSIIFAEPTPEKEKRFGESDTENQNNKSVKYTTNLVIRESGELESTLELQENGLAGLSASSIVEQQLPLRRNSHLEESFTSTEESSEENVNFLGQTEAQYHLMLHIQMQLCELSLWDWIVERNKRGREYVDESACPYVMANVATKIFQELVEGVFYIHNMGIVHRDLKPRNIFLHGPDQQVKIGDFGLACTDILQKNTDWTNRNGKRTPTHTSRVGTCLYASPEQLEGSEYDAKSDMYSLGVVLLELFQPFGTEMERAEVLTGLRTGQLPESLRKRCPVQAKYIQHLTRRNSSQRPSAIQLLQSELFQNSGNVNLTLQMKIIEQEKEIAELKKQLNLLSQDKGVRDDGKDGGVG
Sequence of Serine/threonine-protein kinase 32B (Homo sapiens) (Q9NY57 whole entry): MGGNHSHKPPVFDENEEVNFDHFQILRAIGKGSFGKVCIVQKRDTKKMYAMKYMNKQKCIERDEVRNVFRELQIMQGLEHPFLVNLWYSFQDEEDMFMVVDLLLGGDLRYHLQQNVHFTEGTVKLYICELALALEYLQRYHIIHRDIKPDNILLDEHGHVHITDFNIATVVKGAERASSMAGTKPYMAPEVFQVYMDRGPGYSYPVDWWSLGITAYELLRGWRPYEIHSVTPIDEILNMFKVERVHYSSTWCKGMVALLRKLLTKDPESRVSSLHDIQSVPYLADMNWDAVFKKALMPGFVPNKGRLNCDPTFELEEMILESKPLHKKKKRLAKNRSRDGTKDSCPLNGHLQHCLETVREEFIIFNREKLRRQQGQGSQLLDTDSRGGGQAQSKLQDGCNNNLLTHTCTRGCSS
Sequence of Death-associated protein kinase 3 (Homo sapiens) (O43293 whole entry, looked up): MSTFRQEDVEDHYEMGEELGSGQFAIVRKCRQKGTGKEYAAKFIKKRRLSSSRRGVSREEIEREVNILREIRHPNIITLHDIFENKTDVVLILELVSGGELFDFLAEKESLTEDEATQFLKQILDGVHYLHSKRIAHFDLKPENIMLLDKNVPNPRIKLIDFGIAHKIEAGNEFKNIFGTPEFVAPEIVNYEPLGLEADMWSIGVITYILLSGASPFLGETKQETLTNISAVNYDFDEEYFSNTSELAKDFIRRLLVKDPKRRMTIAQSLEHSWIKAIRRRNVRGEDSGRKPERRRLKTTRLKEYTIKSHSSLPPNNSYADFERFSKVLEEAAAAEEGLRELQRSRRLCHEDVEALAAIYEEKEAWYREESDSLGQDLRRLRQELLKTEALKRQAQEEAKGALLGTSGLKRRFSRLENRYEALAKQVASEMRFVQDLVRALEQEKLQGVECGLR

`O[C@H]1CC[C@H](Nc2ncc3nc(Nc4c(F)cc(F)cc4F)n([C@H]4CCOC4)c3n2)CC1` was tested, and the % of control [1] was 100% and the % of control [2] was 87%.

Compound `N#Cc1cccc(-c2c[nH]c3ncnc(N4CCOCC4)c23)c1` has a % of control [3] of 92%.

`C=CC(=O)Nc1cc(-n2c(=O)ccc3cnc4ccc(-c5ccc(NS(C)(=O)=O)cc5)cc4c32)ccc1C` was tested, and the % of control ([4]; at 1 µM) was 98% and the % of control ([4]; at 10 µM) was 100%.

In the case of `COCC(=O)NC/C=C/c1ccc2ncnc(Nc3ccc(Oc4ccc(C)nc4)c(C)c3)c2c1` [CP-724714], the % of control [5] is reported as 100% and the % of control [6] is reported as 88%.

`Cc1ccc(-c2ccc3c(ccc4sc5c(c43)NC[C@@H](C)NC5=O)n2)cn1` was tested, and the % of inhibition [7] was 58%.

Work on `Cc1cc([C@@H](C)Nc2ccccc2C(=O)O)c2nc(N3CCOCC3)cc(=O)n2c1` [AZD-6482] yielded a % of control [8] of 97%.

Compound `CC[C@@H]1[C@H](F)C(=O)N[C@@H]1COc1nccc2cc(C(N)=O)c(OC)cc12` [ZIMLOVISERTIB] has a % of inhibition [9] of 3.7%.

`COc1cc(Nc2nc(C)cc(-c3cnn4nc(OC)ccc34)n2)cc(C(F)(F)F)c1` gave a % of control [10] of 100%.

`O=C(NOC[C@H](O)CO)c1ccc(F)c(F)c1Nc1ccc(I)cc1F` gave a % of control [11] of 73% and a % of control [12] of 100%.

For `Cn1cc(-n2cnc3c(NCc4nc5cc(Cl)c(Cl)cc5[nH]4)nc(N4CCOCC4)nc32)cn1`, the % of inhibition [13] was 13.4% and the % of control [14] was 6.05%.

Work on `Cc1cnc(Nc2ccc(F)cc2Cl)nc1-c1c[nH]c(C(=O)N[C@H](CO)c2cccc(Cl)c2)c1` yielded a % of inhibition [15] of 25%.
